In PubChem BioAssay (NCI):
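Values below derive from 48-hour exposures of cells grown in 96-well plates, with endpoints linearly interpolated between the two concentrations bracketing the appropriate inhibition level. The concentration for 50% growth inhibition is given as GI50. TGI: total growth inhibition.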

Assays:
Assay in all cases: DTP human tumour cell line panel, 48 h
IGROV1 ovarian = tested on: IGROV1 ovarian
SK-MEL-2 melanoma = tested on: SK-MEL-2 melanoma
SK-MEL-28 melanoma = tested on: SK-MEL-28 melanoma
U251 CNS = tested on: U251 CNS
NCI/ADR-RES ovarian = tested on: NCI/ADR-RES ovarian
COLO 205 colon = tested on: COLO 205 colon
PC-3 prostate = tested on: PC-3 prostate
NCI-H522 lung = tested on: NCI-H522 lung
OVCAR-5 ovarian = tested on: OVCAR-5 ovarian

| Compound | GI50 (IGROV1 ovarian) | TGI (IGROV1 ovarian) | GI50 (SK-MEL-2 melanoma) | TGI (SK-MEL-2 melanoma) | GI50 (SK-MEL-28 melanoma) | TGI (SK-MEL-28 melanoma) | GI50 (U251 CNS) | TGI (U251 CNS) | GI50 (NCI/ADR-RES ovarian) | TGI (NCI/ADR-RES ovarian) | GI50 (COLO 205 colon) | TGI (COLO 205 colon) | GI50 (PC-3 prostate) | TGI (PC-3 prostate) | GI50 (NCI-H522 lung) | TGI (NCI-H522 lung) | GI50 (OVCAR-5 ovarian) | TGI (OVCAR-5 ovarian) |
| --- | --- | --- | --- | --- | --- | --- | --- | --- | --- | --- | --- | --- | --- | --- | --- | --- | --- | --- |
| CCNC(=O)[C@@H]1CCCN2C(=O)CC[C@H](NC(=O)[C@H](Cc3ccc(OP(=O)(O)O)cc3)NC(C)=O)C(=O)N12 | > 25 µM | > 25 µM | > 25 µM | > 25 µM | > 25 µM | > 25 µM | > 25 µM | > 25 µM | > 25 µM | > 25 µM | > 25 µM | > 25 µM | > 25 µM | > 25 µM | > 25 µM | > 25 µM | > 25 µM | > 25 µM |
| CCN(CC)CCOCC[C@H]1CC[C@H]2[C@@H]3[C@H](C)Cc4cc(OS(N)(=O)=O)ccc4[C@H]3CC[C@]12C | 2.41 µM | 8 µM | 2.32 µM | 4.45 µM | 1.27 µM | 2.53 µM | 1.18 µM | 2.59 µM | 1.57 µM | 3.87 µM | 0.62 µM | 1.78 µM | 1.57 µM | 4.48 µM | 1.52 µM | 3.39 µM | 2.52 µM | 7.34 µM |
| Cc1c(N2CCCC2)cc2c(c1NC(=O)c1ccccc1Cl)C(C)(C)CC2(C)C | – | 28 µM | – | 30 µM | – | 33.1 µM | – | 27.6 µM | – | 29.5 µM | – | 35.2 µM | – | 29.9 µM | – | 28.4 µM | – | 32.2 µM |
| COc1cc(NS(C)(=O)=O)ccc1Nc1c2ccc([N+](=O)[O-])cc2nc2c(C)cccc12 | 1.45 µM | 9.36 µM | 4.07 µM | 16.1 µM | 2.73 µM | 17.4 µM | 0.214 µM | 11.2 µM | 6.95 µM | 35.1 µM | 2.05 µM | 13.5 µM | 1.1 µM | 9.1 µM | 1.07 µM | 2.9 µM | 2.87 µM | 14.4 µM |
| C/C(=N\NC(=O)c1sc(=S)n(C)c1N)c1cc2ccccc2o1 | 21.4 µM | > 100 µM | 14 µM | 37 µM | 21.6 µM | > 100 µM | 13.6 µM | 29 µM | 11 µM | 26 µM | 17.1 µM | 50.6 µM | 9.73 µM | 32.7 µM | 15.5 µM | 39 µM | 16.4 µM | 48.2 µM |
| CN(Cc1cnc2nc(N)nc(N)c2n1)c1ccc(C(=O)NC(CCC(=O)O)C(=O)O)cc1C(F)(F)F (stereo not given) | – | > 100 µM | – | > 100 µM | – | > 100 µM | – | > 100 µM | – | > 100 µM | – | > 100 µM | – | > 100 µM | – | > 100 µM | – | > 100 µM |
| N#Cc1c(-c2ccccc2)nc(SCC2CO2)nc1N1CCOCC1 (stereo not given) | 2.6 µM | 25.9 µM | 14.7 µM | 75.7 µM | 5.11 µM | 76.5 µM | 19.2 µM | > 100 µM | 11.3 µM | > 95.5 µM | 11.3 µM | 67.6 µM | 6.19 µM | > 100 µM | 27.5 µM | > 100 µM | 5.05 µM | > 83.3 µM |
| O=C[C@@H](CO)O[C@H](C=O)c1c[nH]c(=O)[nH]c1=O | – | 343 µM | – | 3680 µM | – | 237 µM | – | 930 µM | – | 536 µM | – | 1210 µM | – | 790 µM | – | 282 µM | – | 379 µM |
| CCc1nc(N)nc(N)c1-c1ccc(NCCN)c([N+](=O)[O-])c1 | – | > 100 µM | – | > 100 µM | – | > 100 µM | – | > 100 µM | – | > 100 µM | – | 40.4 µM | – | > 100 µM | – | > 51.1 µM | – | > 100 µM |
| CC12CCC3C(CCC4Cc5[nH]c6ccccc6c5CC43C)C1CCC2O (stereo not given) | 0.768 µM | > 100 µM | 4.28 µM | > 100 µM | 0.813 µM | > 100 µM | 0.646 µM | > 48 µM | 0.481 µM | 5.54 µM | 2.76 µM | 6.78 µM | 3.13 µM | > 100 µM | 0.295 µM | 5.73 µM | > 100 µM | > 100 µM |
| O=[N+]([O-])c1ccc(S(=O)(=O)Cc2ccccc2)c([N+](=O)[O-])c1 | – | 6.36 µM | – | 8.62 µM | – | 8.24 µM | – | 4.91 µM | – | > 51.8 µM | – | 3.26 µM | – | 3.45 µM | – | 2.81 µM | – | 27.3 µM |
| Cn1cc(-c2ccc3c(Nc4cccc(NC(=O)Nc5cccc(F)c5)c4)ncnc3c2)cn1 | 1.3 µM | 11.2 µM | 4.43 µM | 17.8 µM | 1.55 µM | 3.08 µM | 1.79 µM | 5.07 µM | 10.8 µM | > 100 µM | 0.0503 µM | 13.4 µM | 2.78 µM | 15.5 µM | 1.22 µM | 15.9 µM | 10.3 µM | 22 µM |
| CC(=O)NCCc1c2c(c3nccc4c3c1Nc1ccccc1-4)OCS2 | 0.976 µM | 5.61 µM | 3 µM | 13.9 µM | 3.45 µM | 15.7 µM | 1.72 µM | 15.7 µM | 4.83 µM | > 38.2 µM | 2.38 µM | 15.6 µM | 2.95 µM | 9.33 µM | 0.936 µM | 3.11 µM | 5.21 µM | 21.3 µM |
| Clc1ccc(CSC(Cn2ccnc2)c2ccc(Cl)cc2Cl)cc1 (stereo not given) | 1.74 µM | 4.55 µM | 1.52 µM | 3 µM | 1.69 µM | 3.06 µM | 1.39 µM | 2.68 µM | 1.46 µM | 3.05 µM | 1.5 µM | 2.83 µM | 1.21 µM | 3.61 µM | 1.13 µM | 2.48 µM | 2.13 µM | 6.84 µM |
| O=C(Nc1ccc(Cl)c(Cl)c1)c1cccc(NC2=C(Cl)C(=O)N(Cc3ccccc3)C2=O)c1 | 21.1 µM | 91.1 µM | 23.5 µM | 56.5 µM | > 100 µM | > 100 µM | 35.3 µM | > 100 µM | 24.4 µM | 88.9 µM | > 100 µM | > 100 µM | 27.2 µM | > 100 µM | 16.6 µM | 45.5 µM | > 100 µM | > 100 µM |
